Activity calls are given as the source filed them. No cut-off for these calls is given here. Where a SMILES comes first, the peptide text is derived from it. Bridges are numbered along the chain shown (N, C = ends). [ ]: non-standard residue; d: D form. Trp(5-Br) = N[C@@H](Cc1c[nH]c2ccc(Br)cc12)C(=O)O; Abu(4,4,4-F3) = N[C@@H](CC(F)(F)F)C(=O)O; Phe(3-Cl) = N[C@@H](Cc1cccc(Cl)c1)C(=O)O; Phe(4-Cl) = N[C@@H](Cc1ccc(Cl)cc1)C(=O)O; Chg = N[C@H](C(=O)O)C1CCCCC1
Columns and labels:
[1] = target: T1, Sodium channel protein type 9 subunit alpha (Homo sapiens, UniProt Q15858); test: Inhibition of human Nav1.7 stably expressed in cells with train pulses to -20 mV at 0.1 Hz and holding potential of -95 mV by Qube-automated patch clamp assay; format: cell-based
[2] = target: Sodium channel protein type 4 subunit alpha (Homo sapiens, UniProt P35499); test: Inhibition of human Nav1.4 stably expressed in cells with train pulses to -20 mV at 0.1 Hz and holding potential of -95 mV by whole-cell Qube-automated patch clamp assay; format: cell-based
Sequence of Sodium channel protein type 4 subunit alpha (P35499 whole entry): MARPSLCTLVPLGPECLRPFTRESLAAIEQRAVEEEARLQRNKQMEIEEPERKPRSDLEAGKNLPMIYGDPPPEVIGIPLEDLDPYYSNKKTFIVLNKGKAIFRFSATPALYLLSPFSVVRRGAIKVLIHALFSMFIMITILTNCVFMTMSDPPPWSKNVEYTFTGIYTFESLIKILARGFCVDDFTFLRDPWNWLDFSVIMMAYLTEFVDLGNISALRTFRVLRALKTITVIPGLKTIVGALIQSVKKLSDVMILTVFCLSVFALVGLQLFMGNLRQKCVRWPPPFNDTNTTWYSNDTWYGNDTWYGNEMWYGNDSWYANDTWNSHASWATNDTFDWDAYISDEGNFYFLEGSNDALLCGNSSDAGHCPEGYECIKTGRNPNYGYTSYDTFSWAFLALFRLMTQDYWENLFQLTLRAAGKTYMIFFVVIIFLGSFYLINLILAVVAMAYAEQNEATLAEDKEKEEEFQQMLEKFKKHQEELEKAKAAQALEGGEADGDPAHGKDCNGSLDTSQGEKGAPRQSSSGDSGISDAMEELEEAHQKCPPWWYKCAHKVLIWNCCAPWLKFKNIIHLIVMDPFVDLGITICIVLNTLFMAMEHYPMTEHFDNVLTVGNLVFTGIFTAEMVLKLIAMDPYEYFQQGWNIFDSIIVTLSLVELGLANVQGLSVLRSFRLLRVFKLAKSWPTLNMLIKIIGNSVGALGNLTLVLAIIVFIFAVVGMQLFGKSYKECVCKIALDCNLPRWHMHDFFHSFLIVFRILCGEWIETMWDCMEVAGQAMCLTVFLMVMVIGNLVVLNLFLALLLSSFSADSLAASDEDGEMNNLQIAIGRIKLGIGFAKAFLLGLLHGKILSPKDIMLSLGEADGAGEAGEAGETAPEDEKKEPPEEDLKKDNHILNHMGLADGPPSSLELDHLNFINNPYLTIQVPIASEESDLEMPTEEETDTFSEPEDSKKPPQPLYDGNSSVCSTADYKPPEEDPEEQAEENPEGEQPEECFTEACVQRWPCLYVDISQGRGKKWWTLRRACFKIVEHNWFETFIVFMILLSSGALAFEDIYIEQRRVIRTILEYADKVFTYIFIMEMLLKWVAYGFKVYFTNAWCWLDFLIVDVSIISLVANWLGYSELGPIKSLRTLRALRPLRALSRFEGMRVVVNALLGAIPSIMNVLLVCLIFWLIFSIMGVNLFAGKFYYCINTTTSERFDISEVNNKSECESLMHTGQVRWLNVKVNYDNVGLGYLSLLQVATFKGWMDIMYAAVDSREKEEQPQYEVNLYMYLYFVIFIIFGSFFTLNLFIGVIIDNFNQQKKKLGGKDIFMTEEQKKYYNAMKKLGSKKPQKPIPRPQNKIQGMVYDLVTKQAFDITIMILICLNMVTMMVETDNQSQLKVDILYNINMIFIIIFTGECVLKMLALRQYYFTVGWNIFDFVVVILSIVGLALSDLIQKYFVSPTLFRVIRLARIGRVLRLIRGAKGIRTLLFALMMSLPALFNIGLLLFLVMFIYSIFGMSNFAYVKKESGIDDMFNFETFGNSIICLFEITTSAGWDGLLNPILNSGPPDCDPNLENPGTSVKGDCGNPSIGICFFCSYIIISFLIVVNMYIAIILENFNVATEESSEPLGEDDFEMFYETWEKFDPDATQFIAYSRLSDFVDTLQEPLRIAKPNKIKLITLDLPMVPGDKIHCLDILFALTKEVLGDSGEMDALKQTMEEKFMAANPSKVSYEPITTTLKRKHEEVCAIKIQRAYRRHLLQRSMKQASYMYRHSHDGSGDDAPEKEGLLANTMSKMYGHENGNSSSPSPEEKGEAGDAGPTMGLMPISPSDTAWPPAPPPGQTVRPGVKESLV

[3] = target: Sodium channel protein type 8 subunit alpha (Homo sapiens, UniProt Q9UQD0); test: Inhibition of human Nav1.6 stably expressed in cells with train pulses to -20 mV at 0.1 Hz and holding potential of -85 mV by whole-cell Qube-automated patch clamp assay; format: cell-based
Sequence of Sodium channel protein type 8 subunit alpha (Q9UQD0 whole entry): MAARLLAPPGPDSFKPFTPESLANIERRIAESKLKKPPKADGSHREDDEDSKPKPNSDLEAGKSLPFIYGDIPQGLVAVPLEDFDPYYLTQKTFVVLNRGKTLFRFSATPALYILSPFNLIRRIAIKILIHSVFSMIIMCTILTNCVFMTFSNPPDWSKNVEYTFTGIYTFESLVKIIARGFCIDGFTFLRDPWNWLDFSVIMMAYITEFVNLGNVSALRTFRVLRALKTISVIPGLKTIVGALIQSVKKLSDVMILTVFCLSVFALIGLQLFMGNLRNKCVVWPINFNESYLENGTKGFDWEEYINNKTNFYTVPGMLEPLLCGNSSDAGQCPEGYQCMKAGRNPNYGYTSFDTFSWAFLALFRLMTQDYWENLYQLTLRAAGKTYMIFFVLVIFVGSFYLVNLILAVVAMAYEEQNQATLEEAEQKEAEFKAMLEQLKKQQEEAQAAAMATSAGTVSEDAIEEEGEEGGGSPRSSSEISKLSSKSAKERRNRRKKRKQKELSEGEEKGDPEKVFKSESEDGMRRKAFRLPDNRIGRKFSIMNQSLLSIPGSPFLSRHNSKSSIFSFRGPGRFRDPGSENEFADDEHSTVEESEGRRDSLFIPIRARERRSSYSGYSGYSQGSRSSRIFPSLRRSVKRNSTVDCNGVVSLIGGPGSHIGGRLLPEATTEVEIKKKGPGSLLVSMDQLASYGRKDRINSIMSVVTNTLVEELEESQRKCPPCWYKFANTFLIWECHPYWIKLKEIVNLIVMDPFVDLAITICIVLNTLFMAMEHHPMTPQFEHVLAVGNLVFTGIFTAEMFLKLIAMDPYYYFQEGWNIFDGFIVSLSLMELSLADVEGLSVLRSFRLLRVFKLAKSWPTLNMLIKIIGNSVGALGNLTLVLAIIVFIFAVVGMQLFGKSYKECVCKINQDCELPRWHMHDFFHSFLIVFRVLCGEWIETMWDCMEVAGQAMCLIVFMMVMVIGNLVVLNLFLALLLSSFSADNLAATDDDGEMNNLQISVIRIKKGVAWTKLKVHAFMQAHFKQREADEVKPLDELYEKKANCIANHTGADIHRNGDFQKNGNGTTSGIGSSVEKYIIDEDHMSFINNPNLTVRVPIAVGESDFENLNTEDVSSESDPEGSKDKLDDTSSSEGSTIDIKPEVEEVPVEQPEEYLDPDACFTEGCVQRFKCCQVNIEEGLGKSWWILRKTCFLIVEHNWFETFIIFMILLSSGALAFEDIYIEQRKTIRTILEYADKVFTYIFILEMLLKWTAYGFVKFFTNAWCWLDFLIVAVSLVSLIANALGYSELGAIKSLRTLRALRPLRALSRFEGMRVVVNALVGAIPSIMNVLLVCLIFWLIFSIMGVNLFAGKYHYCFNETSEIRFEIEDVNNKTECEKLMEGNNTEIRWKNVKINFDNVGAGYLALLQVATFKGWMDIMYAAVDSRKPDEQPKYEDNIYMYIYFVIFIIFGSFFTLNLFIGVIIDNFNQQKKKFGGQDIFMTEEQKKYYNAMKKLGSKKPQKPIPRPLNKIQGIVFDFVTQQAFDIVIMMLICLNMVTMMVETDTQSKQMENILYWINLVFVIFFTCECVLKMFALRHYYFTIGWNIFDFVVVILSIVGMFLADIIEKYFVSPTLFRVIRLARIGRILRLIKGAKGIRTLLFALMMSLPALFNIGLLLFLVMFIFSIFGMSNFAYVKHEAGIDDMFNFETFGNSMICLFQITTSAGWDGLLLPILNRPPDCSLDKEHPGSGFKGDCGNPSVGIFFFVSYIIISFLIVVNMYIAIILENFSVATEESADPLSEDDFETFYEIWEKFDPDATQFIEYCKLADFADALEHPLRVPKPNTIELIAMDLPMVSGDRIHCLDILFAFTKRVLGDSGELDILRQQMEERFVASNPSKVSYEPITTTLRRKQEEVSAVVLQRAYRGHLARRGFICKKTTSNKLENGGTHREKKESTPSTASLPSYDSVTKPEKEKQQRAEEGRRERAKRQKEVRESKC

[4] = target: T1, Sodium channel protein type 9 subunit alpha; test: Inhibition of human Nav1.7 stably expressed in cells with train pulses to -20 mV at 0.1 Hz and holding potential of -95 mV by whole-cell QPatch HT assay; format: cell-based
[5] = target: Sodium channel protein type 9 subunit alpha (Rattus norvegicus, UniProt O08562); test: Inhibition of rat Nav1.7 stably expressed in cells with train pulses to -20 mV at 0.1 Hz and holding potential of -90 mV by whole-cell QPatch HT assay; format: cell-based
[6] = target: Sodium channel protein type 2 subunit alpha (Homo sapiens, UniProt Q99250); test: Inhibition of human Nav1.2 stably expressed in cells with train pulses to -20 mV at 0.1 Hz and holding potential of -95 mV by Qube-automated patch clamp assay; format: cell-based
[7] = target: Voltage-dependent L-type calcium channel subunit alpha-1C (Homo sapiens, UniProt Q13936); test: Inhibition of human Cav1.2 stably expressed in HEK293 cells incubated for 30 mins in dark by Fluo-4 AM dye based FLIPR assay; format: cell-based
[8] = target: Voltage-gated inwardly rectifying potassium channel KCNH2 (Homo sapiens, UniProt Q12809); test: Inhibition of human ERG by PatchXpress assay; format: toxicity
Sequence of Voltage-gated inwardly rectifying potassium channel KCNH2 (Q12809 whole entry): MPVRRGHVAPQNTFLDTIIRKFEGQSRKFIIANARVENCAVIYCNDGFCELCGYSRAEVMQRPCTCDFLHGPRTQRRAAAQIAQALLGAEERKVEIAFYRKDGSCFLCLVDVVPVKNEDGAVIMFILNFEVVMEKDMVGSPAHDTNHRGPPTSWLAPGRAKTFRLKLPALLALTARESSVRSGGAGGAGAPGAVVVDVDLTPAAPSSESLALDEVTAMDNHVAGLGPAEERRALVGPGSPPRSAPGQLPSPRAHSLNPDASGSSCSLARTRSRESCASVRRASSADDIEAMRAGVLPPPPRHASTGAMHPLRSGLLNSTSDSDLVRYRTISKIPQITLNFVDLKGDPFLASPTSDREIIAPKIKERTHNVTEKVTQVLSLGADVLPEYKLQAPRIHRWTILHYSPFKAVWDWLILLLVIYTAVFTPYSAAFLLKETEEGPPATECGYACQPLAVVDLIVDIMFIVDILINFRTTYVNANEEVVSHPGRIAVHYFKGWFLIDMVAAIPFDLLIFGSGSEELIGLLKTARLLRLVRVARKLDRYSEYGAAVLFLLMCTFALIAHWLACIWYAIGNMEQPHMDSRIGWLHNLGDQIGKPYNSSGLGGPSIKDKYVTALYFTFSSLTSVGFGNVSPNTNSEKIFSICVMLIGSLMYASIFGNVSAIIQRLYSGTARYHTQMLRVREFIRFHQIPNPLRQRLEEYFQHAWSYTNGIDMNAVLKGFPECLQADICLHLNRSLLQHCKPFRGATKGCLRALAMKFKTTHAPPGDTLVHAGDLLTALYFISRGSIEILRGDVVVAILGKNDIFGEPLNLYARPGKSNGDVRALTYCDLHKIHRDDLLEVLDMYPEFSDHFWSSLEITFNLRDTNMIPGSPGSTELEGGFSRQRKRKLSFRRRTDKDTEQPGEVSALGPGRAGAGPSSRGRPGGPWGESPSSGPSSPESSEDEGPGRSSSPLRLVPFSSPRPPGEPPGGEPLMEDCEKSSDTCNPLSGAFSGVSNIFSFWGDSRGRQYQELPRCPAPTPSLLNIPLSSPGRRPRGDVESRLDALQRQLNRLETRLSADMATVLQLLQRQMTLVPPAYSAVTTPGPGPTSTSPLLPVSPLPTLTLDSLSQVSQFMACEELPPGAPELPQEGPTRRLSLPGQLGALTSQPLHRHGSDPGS

[9] = target: Sodium channel protein type 5 subunit alpha (Homo sapiens, UniProt Q14524); test: Inhibition of human Nav1.5 by PatchXpress assay; format: toxicity
[10] = Inhibition of mast cell degranulation in Wistar Han rat peritoneal lavage mast cells assessed as inhibition histamine release by measuring lowest concentration at which histamine release observed measured after 30 mins; format: functional; conditions: 0.5 h
Mast cell [11] = test: Effect on mast cell degranulation in Wistar Han rat peritoneal lavage mast cells assessed as increase in maximum histamine level in plasma at upto 1 mg/kg, iv administered as bolus dose measured up to 24 hrs by LC/MS/MS analysis; format: functional, organism-based; conditions: dose mg/kg <=1, time hrs <=24
Rattus norvegicus [12] = test: Antinociceptive activity against Sprague-Dawley rat model of thermal stimuli induced nociception assessed as increase in tail withdrawal latency administered subcutaneously as single dose measured up to 24 hrs by tail flick test; format: functional, organism-based; conditions: time hrs <=24
Rattus norvegicus [13] = test: Antinociceptive activity against Sprague-Dawley rat model of thermal stimuli induced nociception assessed as concentration required for maximal tail flick withdrawal latency administered subcutaneously as single dose measured up to 24 hrs by tail flick test; format: functional, organism-based
[14] = Ratio of IC50 for inhibition of rat Nav1.7 stably expressed in cells to EC50 for antinociceptive activity against Sprague-Dawley rat model of thermal stimuli induced nociception assessed as concentration required for maximal tail flick withdrawal latency; format: functional
[15] = Half life in Wistar Han rat at 0.3 mg/kg, iv measured upto 24 hrs by LC/MS/MS analysis; format: ADME, organism-based; conditions: in vivo
Mast cell [16] = test: Effect on mast cell degranulation in Wistar Han rat peritoneal lavage mast cells assessed as fold increase in histamine level by measuring histamine Cmax in plasma at 0.3 mg/kg, iv administered as bolus dose measured up to 24 hrs by LC/MS/MS analysis relative to control; format: functional; conditions: time hrs <=24

SMILES	IC50 [1]	IC50 [2]	IC50 [3]	IC50 [4]	IC50 [5]	IC50 [6]	IC50 [7]	IC50 [8]	IC50 [9]	LED [10]	Activity (Mast cell [11])	Activity (Rattus norvegicus [12])	EC50 (Rattus norvegicus [13])	fold change (FC) [14]	half-life [15]	fold change (FC) (Mast cell [16])
CC(=O)N[C@H]1CSSC[C@@H]2NC(=O)[C@@H]3CSSC[C@@H](C(=O)N[C@@H](CCCCN)C(=O)N[C@@H](CCCCN)C(=O)N[C@@H](CCCCN)C(=O)N[C@@H](CC(C)C)C(=O)N[C@@H](Cc4c[nH]c5ccccc45)C(N)=O)NC(=O)[C@H](Cc4c[nH]c5ccccc45)NC(=O)[C@H](CC(C)C)NC(=O)[C@H](CCCCN)NC(=O)[C@H](CSSC[C@H](NC(=O)[C@@H]4CCCN4C(=O)[C@H](CCC(=O)O)NC(=O)[C@H](CC(C)C)NC(=O)[C@H](Cc4ccccc4)NC(=O)[C@H](CCCCN)NC(=O)[C@H](CCC(N)=O)NC1=O)C(=O)N[C@@H](CC(=O)O)C(=O)N[C@@H](CO)C(=O)N[C@@H](CCC(=O)O)C(=O)N[C@@H](CCCNC(=N)N)C(=O)N[C@@H](CCCCN)C(=O)N3)NC(=O)[C@H](CCC(=O)O)NC(=O)[C@H](CC(C)C)NC(=O)CNC(=O)[C@H](CCC(=O)O)NC2=O (Ac-CQKFLEPCDSERKCCEGLECKLWCKKKLW-NH2; disulfide 1-15, 8-20, 14-24)	183 nM	> 17000 nM	> 17000 nM	133 nM	18.8 nM	> 17000 nM	> 30000 nM	> 15000 nM	> 15000 nM	30 µM	inactive	Dose-Dependent Effect	1620 nM	50	< 3 h	–
CC(=O)N[C@H]1CSSC[C@@H]2NC(=O)[C@@H]3CSSC[C@@H](C(=O)N[C@@H](CCCCN)C(=O)N[C@@H](CCCCN)C(=O)N[C@@H](CCCCN)C(=O)N[C@@H](CC(C)C)C(=O)N[C@@H](Cc4c[nH]c5ccccc45)C(N)=O)NC(=O)[C@H](Cc4c[nH]c5ccccc45)NC(=O)[C@H](C4CCCCC4)NC(=O)[C@H](CCCCN)NC(=O)[C@H](CSSC[C@H](NC(=O)[C@@H]4CCCN4C(=O)[C@H](CCC(=O)O)NC(=O)[C@H](CC(F)(F)F)NC(=O)[C@H](Cc4cccc(Cl)c4)NC(=O)[C@H](CCCCN)NC(=O)[C@H](CCC(N)=O)NC1=O)C(=O)N[C@@H](CC(=O)O)C(=O)N[C@@H](CO)C(=O)N[C@@H](CCC(=O)O)C(=O)N[C@@H](CCCNC(=N)N)C(=O)N[C@@H](CCCCN)C(=O)N3)NC(=O)[C@H](CCC(=O)O)NC(=O)[C@H](CC(C)C)NC(=O)CNC(=O)[C@H](CCC(=O)O)NC2=O (Ac-CQK[Phe(3-Cl)][Abu(4,4,4-F3)]EPCDSERKCCEGLECK[Chg]WCKKKLW-NH2; disulfide 1-15, 8-20, 14-24)	64 nM	> 17000 nM	> 17000 nM	–	–	–	–	–	–	33 µM	–	–	–	–	–	–
CC(=O)N[C@H]1CSSC[C@@H]2NC(=O)[C@@H]3CSSC[C@@H](C(=O)N[C@@H](CCCCN)C(=O)N[C@@H](CCCCN)C(=O)N[C@@H](CCCCN)C(=O)N[C@@H](CC(C)C)C(=O)N[C@@H](Cc4c[nH]c5ccccc45)C(=O)O)NC(=O)[C@H](Cc4c[nH]c5ccccc45)NC(=O)[C@H](C4CCCCC4)NC(=O)[C@H](CCCCN)NC(=O)[C@H](CSSC[C@H](NC(=O)[C@@H]4CCCN4C(=O)[C@H](CCC(=O)O)NC(=O)[C@H](CC(F)(F)F)NC(=O)[C@H](Cc4ccc(Cl)cc4)NC(=O)[C@H](CCCCN)NC(=O)[C@H](CCC(N)=O)NC1=O)C(=O)N[C@@H](CC(=O)O)C(=O)N[C@@H](CO)C(=O)N[C@@H](CCC(=O)O)C(=O)N[C@@H](CCCNC(=N)N)C(=O)N[C@@H](CCCCN)C(=O)N3)NC(=O)[C@H](CCC(=O)O)NC(=O)[C@H](CC(C)C)NC(=O)CNC(=O)[C@H](CCC(=O)O)NC2=O (Ac-CQK[Phe(4-Cl)][Abu(4,4,4-F3)]EPCDSERKCCEGLECK[Chg]WCKKKLW-OH; disulfide 1-15, 8-20, 14-24)	91 nM	> 17000 nM	11100 nM	–	–	–	–	–	–	30 µM	–	–	–	–	–	–
CC(=O)N[C@H]1CSSC[C@@H]2NC(=O)[C@@H]3CSSC[C@@H](C(=O)N[C@@H](CCCCN)C(=O)N[C@@H](CCCCN)C(=O)N[C@@H](CCCCN)C(=O)N[C@@H](CC(C)C)C(=O)N[C@@H](Cc4c[nH]c5ccccc45)C(N)=O)NC(=O)[C@H](Cc4c[nH]c5ccccc45)NC(=O)[C@H](C4CCCCC4)NC(=O)[C@H](CCCCN)NC(=O)[C@H](CSSC[C@H](NC(=O)[C@@H]4CCCN4C(=O)[C@H](CCC(=O)O)NC(=O)[C@H](CC(F)(F)F)NC(=O)[C@H](Cc4c[nH]c5ccc(Br)cc45)NC(=O)[C@H](CCCCN)NC(=O)[C@H](CCC(N)=O)NC1=O)C(=O)N[C@@H](CC(=O)O)C(=O)N[C@@H](CO)C(=O)N[C@@H](CCC(=O)O)C(=O)N[C@@H](CCCNC(=N)N)C(=O)N[C@@H](CCCCN)C(=O)N3)NC(=O)[C@H](CCC(=O)O)NC(=O)[C@H](CC(C)C)NC(=O)CNC(=O)[C@H](CCC(=O)O)NC2=O (Ac-CQK[Trp(5-Br)][Abu(4,4,4-F3)]EPCDSERKCCEGLECK[Chg]WCKKKLW-NH2; disulfide 1-15, 8-20, 14-24)	30 nM	> 17000 nM	2610 nM	–	–	–	–	–	–	3.3 µM	–	–	–	–	–	–
CC(C)C[C@@H]1NC(=O)CNC(=O)[C@H](CCC(=O)O)NC(=O)[C@@H]2CSSC[C@H](NC(=O)[C@@H](N)Cc3ccc(O)cc3)C(=O)N[C@@H](CCC(N)=O)C(=O)N[C@@H](CCCCN)C(=O)N[C@@H](Cc3ccccc3)C(=O)N[C@@H](CC(C)C)C(=O)N[C@@H](C)C(=O)N3CCC[C@H]3C(=O)N[C@H]3CSSC[C@H](NC(=O)[C@H](C(C)C)NC1=O)C(=O)N[C@@H](CCCNC(=N)N)C(=O)N[C@@H](CC(C)C)C(=O)N[C@@H](Cc1c[nH]c4ccccc14)C(=O)N[C@H](C(=O)N[C@@H](CCCCN)C(=O)N[C@@H](CCCCN)C(=O)N[C@@H](CCCCN)C(=O)N[C@@H](CC(C)C)C(=O)N[C@@H](Cc1c[nH]c4ccccc14)C(N)=O)CSSC[C@H](NC(=O)[C@H](CCCCN)NC(=O)[C@H](CCCNC(=N)N)NC(=O)[C@H](CCC(=O)O)NC(=O)[C@H](CO)NC(=O)[C@H](CC(=O)O)NC3=O)C(=O)N2 (H-YCQKFLAPCDSERKCCEGLVCRLWCKKKLW-NH2; disulfide 2-16, 9-21, 15-25)	32 nM	1770 nM	1190 nM	5.9 nM	8.3 nM	> 17000 nM	> 30000 nM	780 nM	2900 nM	3.3 µM	–	Dose-Dependent Effect	294 nM	50	< 3 h	12

— ChEMBL document CHEMBL5038633 (J Med Chem, 2022)
